Assay results published in patent publication US20260083729A1, “METHODS FOR TREATMENT OF BONE MARROW FAILURE AND RELATED CONDITIONS” (Imago Biosciences, Inc., priority 2022, published 2026).

Tests used:
[1] = tested on: LSK cells (HSC/progenitor cells: Lineage−, Sca-1+, c-Kit+); test: In vivo expansion of LSK cells in bone marrow of wild-type mice (flow cytometry); design: species or system mice (C57/BL6); conditions: oral gavage
Protocol: (§1) The effect of LSD1 inhibitors on HSCPs was investigated in in vivo studies.
(§2) Animals. Healthy animals with an intact immune system were used for all experiments. All animals were drug and test naïve and not involved in previous procedures. Animals were maintained on a 12 hour light-dark cycle with access to water and standard chow ad libitum. CRADL animal care staff conducted routine husbandry procedures and provided daily care and monitoring of all animals housed in CRADL's animal facilities. 8-week old female C57/BL6 (C57BL/6NCrl) mice were purchased from Charles River. All mice were acclimated for at least 48 hours upon arrival. Mice were assigned to treatment groups based on complete blood counts to achieve congruent profiles, body weight was recorded for dose adjustments, and ear tagged for identification. Investigators were not blinded to the identity of mice or samples. No statistical methods were utilized to determine sample size. The experiments described in this study were designed to use the minimum number of animals required.
(§3) Dosing. To assess the effect of different LSD1 inhibitors on hematopoietic stem and progenitor cells (HSPCs), wild-type mice were administered with Compound 3, Compound 2, or vehicle once daily for 7 days via oral gavage. Administered doses were as indicated in FIGS. 1-5 (Compound 3: 15 and 40 mg/kg, Compound 2, 15, 40, 60, and/or 80 mg/kg).
(§4) Drug preparation. As an example of formulation calculations, a correction factor (compound and lot dependent) of 1.5 will be used (e.g., one lot of Compound 2 actual correction factor 1.67; one lot of Compound 3 actual correction factor 1.69). Vehicle is 30% PEG400 (Millipore Sigma cat #8074850058), 5% Cremophor EL (Med Chem Express cat #HY-Y189) in sterile Milli-Q water.
(§5) Compound 3 or Compound 2 (salt) at a dose of 15 mg/kg dose was prepared by weighing out 0.3 mg×1.5 (example correction factor)=0.45 mg per mouse in 200 μl vehicle solution. Each mouse of 20 g received 200 μl of compound in vehicle solution (volume was corrected for body weight of each mouse at time of dosing). Calculations were scaled appropriately for higher doses. Compound was completely dissolved by swirling and gently pipetting in vehicle. Aliquots were stored for daily usage at 4 C in the dark. On the day of dosing, formulations and vehicle were removed from 4 C and allowed to warm to RT for at least 20 minutes before dosing. Formulations were swirled to achieve a homogenous solution prior to administration for 7 days, once daily, via oral gavage.
(§6) Processing of bones and blood for analysis. 24 hours after the last dose was administered, blood was collected via cheek bleed and mice were subsequently sacrificed via CO2 asphyxiation. Bones were separated from the mice, muscle and tissue removed, and bone marrow cells were isolated from mouse femora and tibiae by centrifugation. Red blood cells (RBC) were lysed by adding cold ACK lysis buffer (Thermo Fisher cat #A1049201) and incubating bone marrow cells (or […] of peripheral blood) on ice for 10 minutes. Following RBC lysis, samples were topped up with an appropriate volume of FACS buffer (PBS+2% BSA) and centrifuged at 3000 rpm for 5 minutes. Cell pellet was resuspended in FACS buffer and filtered through a […] filter to remove aggregated cell clumps and debris. Cells in the filtered suspension were counted and ˜2-3×10^6 cells removed for cell staining.
(§7) Flow Cytometry Analysis. For flow staining, @ 2-3×10e6 cells were centrifuged at 400×g, 5 minutes, 4 C in 1.5 ml centrifuge tubes. Supernatant was aspirated and cells were resuspended in 100 μl of staining cock-tail per tube. Tubes were incubated on ice for 30 minutes in the dark. 1 ml of FACS buffer (PBS+2% FBS) was added to each tube and then centrifuged at 400×g, 5 minutes, 4° C. Supernatant was aspirated, and cells were resuspended at 300 μl per tube in 7-AAD solution (5 μl/ml of FACS Buffer). […]

platelet (PLT) levels = test: Complete blood count, platelet (PLT) levels, in treated mice; assay type: in vivo, mice (C57/BL6); conditions: once daily for 7 days, oral gavage
Protocol: as §2, §3
as §5, with “On the day of dosing, formulations and vehicle were removed from 4 C and allowed to warm to RT for at least 20 minutes before dosing. Formulations were swirled to achieve a homogenous solution prior to administration for 7 days, once daily, via oral gavage.” left out
Processing of bones and blood for analysis. […] Cells in the filtered suspension were counted and ˜2-3×10^6 cells removed for cell staining.
Complete blood counts. Complete blood counts from the peripheral blood sample collected at end of study were measured at IDEXX BioAnalytics.

[2] = tested on: long-term HSC (LT-HSC) cells; test: In vivo expansion of long-term HSC (LT-HSC) cells in bone marrow of wild-type mice (flow cytometry); design: species or system mice (C57/BL6); conditions: oral gavage
Protocol: as §1, §2, §3, §4, §5, §6, §7

For `COc1ccc(-n2nc(NC[C@H]3CCC[C@H](N)C3)cc2-c2ccc(C#N)c(F)c2)cc1` [Compound 2], the “in vivo expansion of LSK cells, fold increase” value ([1]; 40 mg/kg once daily for 7 days) was 1.7 fold, the “number of LSK cells, treated group” value ([1]; 40 mg/kg once daily for 7 days) was 1714 and the “in vivo expansion of LSK cells, fold increase” value ([1]; 80 mg/kg once daily for 7 days) was 2.3 fold. For the same compound, the “number of LSK cells, treated group” value ([1]; 80 mg/kg once daily for 7 days) was 2215, the “effect on complete blood count as evidenced by platelet (PLT) levels” value (“effect on complete blood count” below) (platelet (PLT) levels; three higher concentrations) was “not significantly affected at any dose” and the “effect on complete blood count” value (platelet (PLT) levels; two concentrations) was “not significantly affected at either dose”. The “in vivo expansion of LT-HSC cells, fold increase” value ([2]; 40 mg/kg once daily for 7 days) was 1.5 fold, the “number of LT-HSC cells, treated group” value ([2]; 40 mg/kg once daily for 7 days) was 250 and the “in vivo expansion of LT-HSC cells, fold increase” value ([2]; 80 mg/kg once daily for 7 days) was 1.6 fold. For the same compound, the “number of LT-HSC cells, treated group” value ([2]; 80 mg/kg once daily for 7 days) was 157.
For `CN1CCN(C(=O)[C@H](CCCN[C@@H]2C[C@H]2c2ccc(F)cc2)NC(=O)c2ccc(-n3ccnn3)cc2)CC1` [IMG-7289, bomedemstat], the “in vivo expansion of LSK cells, fold increase” value ([1]; 15 mg/kg once daily for 7 days) was 2 fold, the “number of LSK cells, treated group” value ([1]; 15 mg/kg once daily for 7 days) was 2545 and the “in vivo expansion of LSK cells, fold increase” value ([1]; 40 mg/kg once daily for 7 days) was 6 fold. For the same compound, the “effect on complete blood count” value (platelet (PLT) levels; two concentrations) was “reduced in a dose-dependent manner”, the “in vivo expansion of LT-HSC cells, fold increase” value ([2]; 15 mg/kg once daily for 7 days) was 2 fold and the “number of LT-HSC cells, treated group” value ([2]; 15 mg/kg once daily for 7 days) was 252. For the same compound, the “in vivo expansion of LT-HSC cells, fold increase” value ([2]; 40 mg/kg once daily for 7 days) was 7.5 fold and the “number of LT-HSC cells, treated group” value ([2]; 40 mg/kg once daily for 7 days) was 921.
